Data set [1] concerns the target T1, Solute carrier organic anion transporter family member 1A1 (Rattus norvegicus, UniProt P46720).
T1 sequence (P46720 whole entry): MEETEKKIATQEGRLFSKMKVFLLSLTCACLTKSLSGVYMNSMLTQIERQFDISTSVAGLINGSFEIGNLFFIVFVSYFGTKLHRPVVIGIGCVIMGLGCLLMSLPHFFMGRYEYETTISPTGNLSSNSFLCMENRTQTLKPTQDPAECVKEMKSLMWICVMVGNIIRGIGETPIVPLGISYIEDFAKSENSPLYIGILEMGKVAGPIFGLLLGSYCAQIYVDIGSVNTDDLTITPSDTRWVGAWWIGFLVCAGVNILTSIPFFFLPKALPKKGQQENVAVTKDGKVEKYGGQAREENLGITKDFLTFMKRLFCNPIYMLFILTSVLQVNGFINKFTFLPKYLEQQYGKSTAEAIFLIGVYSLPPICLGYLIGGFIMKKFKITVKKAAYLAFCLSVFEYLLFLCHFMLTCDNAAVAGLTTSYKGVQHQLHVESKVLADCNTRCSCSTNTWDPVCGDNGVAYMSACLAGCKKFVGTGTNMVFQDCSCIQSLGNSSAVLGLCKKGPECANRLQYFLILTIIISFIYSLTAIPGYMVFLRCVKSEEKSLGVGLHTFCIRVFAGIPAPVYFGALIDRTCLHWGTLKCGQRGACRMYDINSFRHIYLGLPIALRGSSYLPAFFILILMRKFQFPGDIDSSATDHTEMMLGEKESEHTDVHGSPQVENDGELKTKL
The data set is described as follows: TP_TRANSPORTER: inhibition of BSP uptake (BSP: 2 uM, DIDS: 100 uM) in Xenopus laevis oocytes. In kind it is functional, cell-based, Oocyte. As to conditions: probe BSP.

For data set [2], the target named is T1, Solute carrier organic anion transporter family member 1A1. In words: TP_TRANSPORTER: inhibition of BSP uptake (BSP: 1 uM, Bilirubin: 10 uM) in Xenopus laevis oocytes. It is filed as functional, cell-based, Oocyte. As to conditions: probe BSP.
For data set [3] the target is unchanged. The data set is described as follows: TP_TRANSPORTER: inhibition of Taurocholate uptake (Taurochorate: 20 uM, CDCA: 200 uM) in Xenopus laevis oocytes. It is filed as functional, cell-based. As to conditions: oocyte.
For data set [4] the target is unchanged. The data set is described as follows: TP_TRANSPORTER: inhibition of BSP uptake (BSP: 2 uM, CDCA: 100 uM) in Xenopus laevis oocytes. It is filed as functional, cell-based. As to conditions: oocyte.
Data set [5] shares this target. The data set is described as follows: TP_TRANSPORTER: inhibition of Taurocholate uptake (Taurochorate: 20 uM, DCA: 200 uM) in Xenopus laevis oocytes. In kind it is functional, cell-based. As to conditions: oocyte.
The target is the same in data set [6]. The data set is described as follows: TP_TRANSPORTER: inhibition of BSP uptake (BSP: 2 uM, DCA: 100 uM) in Xenopus laevis oocytes. It is filed as functional, cell-based. The following applies: oocyte.
The target is the same in data set [7]. In words: TP_TRANSPORTER: inhibition of Taurocholate uptake (Taurochorate: 20 uM, GCDCA: 200 uM) in Xenopus laevis oocytes. The following applies: oocyte. It is filed as functional, cell-based.
For data set [8] the target is unchanged. In words: TP_TRANSPORTER: inhibition of BSP uptake (BSP: 2 uM, GCDCA: 100 uM) in Xenopus laevis oocytes. It is filed as functional, cell-based. The following applies: oocyte.
For data set [9] the target is unchanged. The data set is described as follows: TP_TRANSPORTER: inhibition of BSP uptake (BSP: 2 uM, GC: 100 uM) in Xenopus laevis oocytes. In kind it is functional, cell-based. The following applies: oocyte.
For data set [10] the target is unchanged. In words: TP_TRANSPORTER: inhibition of Taurocholate uptake (Taurochorate: 20 uM, GC: 200 uM) in Xenopus laevis oocytes. The following applies: oocyte. In kind it is functional, cell-based.
Data set [11] has the same target. In words: TP_TRANSPORTER: inhibition of Taurocholate uptake (Taurochorate: 20 uM, GDCA: 200 uM) in Xenopus laevis oocytes. It is filed as functional, cell-based. The following applies: oocyte.
The target is the same in data set [12]. In words: TP_TRANSPORTER: inhibition of BSP uptake (BSP: 2 uM, GDCA: 100 uM) in Xenopus laevis oocytes. In kind it is functional, cell-based. As to conditions: oocyte.
Data set [13] has the same target. The data set is described as follows: TP_TRANSPORTER: inhibition of BSP uptake (BSP: 2 uM, ICG: 100 uM) in Xenopus laevis oocytes. It is filed as functional, cell-based, Oocyte. As to conditions: probe BSP, read-out: Activity.
Data set [14] has the same target. The data set is described as follows: TP_TRANSPORTER: inhibition of BSP uptake (BSP: 2 uM, Probenecid: 1000 uM) in Xenopus laevis oocytes. In kind it is functional, cell-based, Oocyte. The following applies: probe BSP.
The target is the same in data set [15]. The data set is described as follows: TP_TRANSPORTER: inhibition of Taurocholate uptake (Taurochorate: 20 uM, TCDC: 200 uM) in Xenopus laevis oocytes. It is filed as functional, cell-based. The following applies: oocyte.
For data set [16] the target is unchanged. The data set is described as follows: TP_TRANSPORTER: inhibition of BSP uptake (BSP: 2 uM, TCDC: 100 uM) in Xenopus laevis oocytes. In kind it is functional, cell-based. The following applies: oocyte.
The target is the same in data set [17]. The data set is described as follows: TP_TRANSPORTER: inhibition of Taurocholate uptake (Taurochorate: 20 uM, TDCA: 200 uM) in Xenopus laevis oocytes. As to conditions: oocyte. It is filed as functional, cell-based.
Data set [18] shares this target. In words: TP_TRANSPORTER: inhibition of BSP uptake (BSP: 2 uM, TDCA: 100 uM) in Xenopus laevis oocytes. In kind it is functional, cell-based. The following applies: oocyte.
The target is the same in data set [19]. In words: TP_TRANSPORTER: inhibition of Taurocholate uptake (Taurochorate: 20 uM, UDCA: 200 uM) in Xenopus laevis oocytes. In kind it is functional, cell-based. The following applies: oocyte.
The target is the same in data set [20]. The data set is described as follows: TP_TRANSPORTER: inhibition of BSP uptake (BSP: 2 uM, UDCA: 100 uM) in Xenopus laevis oocytes. It is filed as functional, cell-based. The following applies: oocyte.

SMILES strings stand for the structures.

In data set [1], `O=S(=O)(O)c1cc(N=C=S)ccc1/C=C/c1ccc(NC=S)cc1S(=O)(=O)O` had an inhibition at 100 µM of 52%. With `C=CC1=C(C)/C(=C/c2[nH]c(Cc3[nH]c(/C=C4\NC(=O)C(C)=C4C=C)c(C)c3CCC(=O)O)c(CCC(=O)O)c2C)NC1=O` [BILIRUBIN], in data set [2], the inhibition at 10 µM worked out at 43%.

For the compound `C[C@H](CCC(=O)O)[C@H]1CC[C@H]2[C@@H]3[C@H](O)C[C@@H]4C[C@H](O)CC[C@]4(C)[C@H]3CC[C@]12C` [CHENODIOL], the Activity entry in data set [3] was “inhibitor [(at a rough estimate) 5 % of control]”; in data set [4] it was “inhibitor [(at a rough estimate) 15 % of control]”. As for `C[C@H](CCC(=O)O)[C@H]1CC[C@H]2[C@@H]3CC[C@@H]4C[C@H](O)CC[C@]4(C)[C@H]3C[C@H](O)[C@]12C` [DEOXYCHOLIC ACID], the Activity result was “inhibitor [(at a rough estimate) 5 % of control]” in [5] and “inhibitor [(at a rough estimate) 15 % of control]” in data set [6]. On to `C[C@H](CCC(=O)NCC(=O)O)[C@H]1CC[C@H]2[C@@H]3[C@H](O)C[C@@H]4C[C@H](O)CC[C@]4(C)[C@H]3CC[C@]12C` [GLYCOCHENODEOXYCHOLATE], for which the Activity result is “inhibitor [(at a rough estimate) 5 % of control]” in [7] and “inhibitor [(at a rough estimate) 10 % of control]” in data set [8]. For the compound `C[C@H](CCC(=O)NCC(=O)O)[C@H]1CC[C@H]2[C@@H]3[C@H](O)C[C@@H]4C[C@H](O)CC[C@]4(C)[C@H]3C[C@H](O)[C@]12C` [GLYCOCHOLIC ACID], the Activity entry in [9] was “inhibitor [(at a rough estimate) 45 % of control]”; in data set [10], “inhibitor [(at a rough estimate) 40 % of control]”.

For `C[C@H](CCC(=O)NCC(=O)O)[C@H]1CC[C@H]2[C@@H]3CC[C@@H]4C[C@H](O)CC[C@]4(C)[C@H]3C[C@H](O)[C@]12C` [GLYCODEOXYCHOLATE], the Activity entry in [11] was “inhibitor [(at a rough estimate) 10 % of control]”; in data set [12] it was “inhibitor [(at a rough estimate) 15 % of control]”.

For the compound `CC1(C)C(/C=C/C=C/C=C/C=C2\N(CCCCS(=O)(=O)O)c3ccc4ccccc4c3C2(C)C)=[N+](CCCCS(=O)(=O)[O-])c2ccc3ccccc3c21` [INDOCYANINE GREEN], the inhibition at 100 µM in [13] worked out at 81%. In data set [14], `CCCN(CCC)S(=O)(=O)c1ccc(C(=O)O)cc1` [PROBENECID] showed an inhibition at 1000 µM of 74%.

As for `C[C@H](CCC(=O)NCCS(=O)(=O)O)[C@H]1CC[C@H]2[C@@H]3[C@H](O)C[C@@H]4C[C@H](O)CC[C@]4(C)[C@H]3CC[C@]12C` [TAUROCHENODEOXYCHOLATE], the Activity result in data set [15] and in [16] was “inhibitor [(at a rough estimate) 5 % of control]” each time. With `C[C@H](CCC(=O)NCCS(=O)(=O)O)[C@H]1CC[C@H]2[C@@H]3CC[C@@H]4C[C@H](O)CC[C@]4(C)[C@H]3C[C@H](O)[C@]12C` [TAURODEOXYCHOLIC ACID], the Activity result is “inhibitor [(at a rough estimate) 5 % of control]” in [17] and “inhibitor [(at a rough estimate) 10 % of control]” in data set [18]. With `C[C@H](CCC(=O)O)[C@H]1CC[C@H]2[C@@H]3[C@@H](O)C[C@@H]4C[C@H](O)CC[C@]4(C)[C@H]3CC[C@]12C` [URSODIOL], the Activity entry is “inhibitor [(at a rough estimate) 10 % of control]” in [19] and “inhibitor [(at a rough estimate) 15 % of control]” in [20].

The values are drawn from ChEMBL document CHEMBL2073877, “Functional characterization of the basolateral rat liver organic anion transporting polypeptide” (Hepatology, 1994).
